Measurements as given in ChEMBL document CHEMBL4417634, “DNA2 inhibitors for cancer treatment” (2018).
Active and inactive are the calls of the source. The calls are words filed in the database; no cut-off is given here.

What was measured:
U2OS [1] = experiment: Induction of single-stranded DNA accumulation in human U2OS cells assessed as reduction in P-RPA foci at 50 uM; assay type: functional, cell-based
Saccharomyces cerevisiae [2] = experiment: Potentiation of high temperature-induced cytotoxicity in yeast cells by dilution assay; assay type: functional, organism-based
Saccharomyces cerevisiae [3] = experiment: Potentiation of DNA damaging agent methyl methane sulfonate-induced cytotoxicity in yeast cells deficient in rad27 by dilution assay; assay type: functional, organism-based
Saccharomyces cerevisiae [4] = experiment: Potentiation of DNA damaging agent methyl methane sulfonate-induced cytotoxicity in yeast cells by dilution assay; assay type: functional, organism-based
Saccharomyces cerevisiae [5] = experiment: Potentiation of high temperature-induced cytotoxicity in yeast cells deficient in rad27 by dilution assay; assay type: functional, organism-based
Homo sapiens = organism: Homo sapiens; experiment: Suppression of 125 nM cisplatin-induced cytotoxicity in FANCD2 (-/-) human PD20 cells assessed as increase in cell survival at 10 uM; assay type: functional, cell-based
MCF-10A = experiment: Cytotoxicity against human MCF10A cells assessed as reduction in cell viability incubated for 7 days; assay type: cell-based; conditions: 168 h
U2OS [6] = experiment: Induction of single-stranded DNA accumulation in human U2OS cells assessed as reduction in P-RPA foci at 20 uM; assay type: functional, cell-based
Mus musculus = organism: Mus musculus; experiment: Cytotoxicity against dna2 (-/-) mouse MES cells assessed as cell survival relative to control; assay type: functional, cell-based
[7] = biological target: Exonuclease 1 (Homo sapiens) (UniProt Q9UQ84)
Exonuclease 1 (Homo sapiens), sequence (Q9UQ84 whole entry): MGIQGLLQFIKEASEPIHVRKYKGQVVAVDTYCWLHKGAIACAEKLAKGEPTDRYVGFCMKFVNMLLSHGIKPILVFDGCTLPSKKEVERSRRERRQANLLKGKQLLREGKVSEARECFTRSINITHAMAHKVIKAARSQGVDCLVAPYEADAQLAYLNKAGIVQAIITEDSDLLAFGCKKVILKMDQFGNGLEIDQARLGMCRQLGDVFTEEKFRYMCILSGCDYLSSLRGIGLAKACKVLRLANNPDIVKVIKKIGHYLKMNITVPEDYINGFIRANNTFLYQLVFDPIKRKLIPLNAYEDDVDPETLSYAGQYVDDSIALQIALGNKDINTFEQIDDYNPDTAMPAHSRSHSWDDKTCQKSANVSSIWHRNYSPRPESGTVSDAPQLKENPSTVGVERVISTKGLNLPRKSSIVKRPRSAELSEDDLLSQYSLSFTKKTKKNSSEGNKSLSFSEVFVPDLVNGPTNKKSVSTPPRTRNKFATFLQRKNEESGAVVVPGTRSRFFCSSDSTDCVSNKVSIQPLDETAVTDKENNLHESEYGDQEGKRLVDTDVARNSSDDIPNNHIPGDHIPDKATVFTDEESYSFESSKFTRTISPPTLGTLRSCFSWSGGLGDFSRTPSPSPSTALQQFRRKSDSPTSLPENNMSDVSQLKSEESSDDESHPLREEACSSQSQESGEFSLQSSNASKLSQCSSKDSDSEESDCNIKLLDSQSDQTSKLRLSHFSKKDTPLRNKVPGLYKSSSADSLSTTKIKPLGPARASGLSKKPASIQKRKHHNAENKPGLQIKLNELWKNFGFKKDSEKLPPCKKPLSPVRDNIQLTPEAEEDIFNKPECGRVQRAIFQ

HCT-116 [8] = experiment: Cytotoxicity against human HCT116 cells assessed as reduction in cell viability at 10 to 10000 nM in presence of siEXO1 by tryphan blue staining based assay; assay type: functional
WiDr = experiment: Cytotoxicity against human WiDr cells assessed as reduction in cell viability incubated for 7 days; assay type: functional, cell-based; conditions: 168 h
NCI-H2030 = experiment: Cytotoxicity against human NCI-H2030 cells assessed as reduction in cell viability incubated for 7 days; assay type: functional, cell-based; conditions: NCI-H2030, 168 h
MCF7 [9] = experiment: Cytotoxicity against human MCF7 cells assessed as reduction in cell viability incubated for 7 days; assay type: functional, cell-based; conditions: MCF7, 168 h
CWR22R = experiment: Cytotoxicity against human 22Rv1 cells assessed as reduction in cell viability incubated for 7 days; assay type: functional, cell-based; conditions: 22Rv1, 168 h
PC-3 = experiment: Cytotoxicity against human PC3 cells assessed as reduction in cell viability incubated for 7 days; assay type: functional, cell-based; conditions: PC-3, 168 h
HCT-116 [10] = experiment: Cell cycle arrest in human HCT116 cells assessed as accumulation at G1 phase at 50 uM incubated for 48 hrs by propidium iodide staining based flow cytometry (reference value: 76.2%); assay type: functional
HCT-116 [11] = experiment: Cytotoxicity against human HCT116 cells assessed as reduction in cell viability at 10 to 10000 nM in presence of siMRE11 by tryphan blue staining based assay; assay type: functional
HCT-116 [12] = experiment: Cell cycle arrest in human HCT116 cells assessed as accumulation at S phase at 10 uM incubated for 48 hrs by propidium iodide staining based flow cytometry (reference value: […]); assay type: functional
NCI-H460 = experiment: Cytotoxicity against human NCI-H460 cells assessed as reduction in cell viability incubated for 7 days; assay type: functional, cell-based; conditions: NCI-H460, 168 h
DLD-1 = experiment: Cytotoxicity against human DLD1 cells assessed as reduction in cell viability incubated for 7 days; assay type: functional, cell-based; conditions: DLD-1, 168 h
MDA-MB-231 = experiment: Cytotoxicity against human MDA-MB-231 cells assessed as reduction in cell viability incubated for 7 days; assay type: functional, cell-based; conditions: MDA-MB-231, 168 h
HCT-116 [13] = experiment: Cell cycle arrest in human HCT116 cells assessed as accumulation at G1 phase at 10 uM incubated for 48 hrs by propidium iodide staining based flow cytometry (reference value: 76.2%); assay type: functional
MCF7 [14] = experiment: Cytotoxicity against human MCF7 cells transfected with shDNA2 assessed as cell survival relative to control; assay type: functional, cell-based
RWPE-1 = experiment: Cytotoxicity against human RWPE1 cells assessed as reduction in cell viability incubated for 7 days; assay type: cell-based; conditions: RWPE-1, 168 h
HCT-116 [15] = experiment: Cell cycle arrest in human HCT116 cells assessed as accumulation at G2/M phase at 10 uM incubated for 48 hrs by propidium iodide staining based flow cytometry (reference value: […]); assay type: functional
FHC = experiment: Cytotoxicity against human FHC cells assessed as reduction in cell viability incubated for 7 days; assay type: cell-based; conditions: 168 h
[16] = biological target: Flap endonuclease 1 (Homo sapiens) (UniProt P39748)
Flap endonuclease 1 (Homo sapiens), sequence (P39748 whole entry): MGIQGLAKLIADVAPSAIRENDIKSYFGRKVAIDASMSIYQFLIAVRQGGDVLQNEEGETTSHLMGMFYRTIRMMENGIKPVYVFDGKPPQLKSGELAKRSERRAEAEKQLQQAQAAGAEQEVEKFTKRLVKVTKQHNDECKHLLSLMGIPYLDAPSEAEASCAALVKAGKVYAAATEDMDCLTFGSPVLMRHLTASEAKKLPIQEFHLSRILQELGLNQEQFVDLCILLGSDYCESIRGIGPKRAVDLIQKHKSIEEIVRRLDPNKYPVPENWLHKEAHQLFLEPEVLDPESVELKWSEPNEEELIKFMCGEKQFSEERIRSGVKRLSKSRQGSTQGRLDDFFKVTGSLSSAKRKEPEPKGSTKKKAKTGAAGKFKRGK

A549 = experiment: Cytotoxicity against human A549 cells assessed as reduction in cell viability incubated for 7 days; assay type: functional, cell-based; conditions: A549, 168 h
[17] = Cytotoxicity against human CWRR1 cells assessed as reduction in cell viability incubated for 7 days; assay type: functional, cell-based; conditions: 168 h
HCT-116 [18] = experiment: Cell cycle arrest in human HCT116 cells assessed as accumulation at S phase at 50 uM incubated for 48 hrs by propidium iodide staining based flow cytometry (reference value: […]); assay type: functional
HT-29 = experiment: Cytotoxicity against human HT-29 cells assessed as reduction in cell viability incubated for 7 days; assay type: functional, cell-based; conditions: HT-29, 168 h
IMR-90 = experiment: Cytotoxicity against human IMR90 cells assessed as reduction in cell viability incubated for 7 days; assay type: cell-based; conditions: IMR-90, 168 h
HCT-8 = experiment: Cytotoxicity against human HCT8 cells assessed as reduction in cell viability incubated for 7 days; assay type: functional, cell-based; conditions: HCT-8, 168 h
HCT-116 [19] = experiment: Cell cycle arrest in human HCT116 cells assessed as accumulation at G2/M phase at 50 uM incubated for 48 hrs by propidium iodide staining based flow cytometry (reference value: […]); assay type: functional
HCT-116 [20] = experiment: Cytotoxicity against human HCT116 cells assessed as reduction in cell viability at 10 to 10000 nM in presence of siFEN1 by tryphan blue staining based assay; assay type: functional
LNCaP C4-2 = experiment: Cytotoxicity against human C4-2 cells assessed as reduction in cell viability incubated for 7 days; assay type: functional, cell-based; conditions: LNCaP C4-2, 168 h
HCT-116 [21] = experiment: Cytotoxicity against human HCT116 cells assessed as reduction in cell viability incubated for 7 days; assay type: functional, cell-based; conditions: HCT-116, 168 h

With N=C1NC(=O)/C(=C/c2ccc(O)cc2)S1 the Activity (U2OS [1]) was “inactive”.
With CCCCNC(=O)c1c[nH]c2c([N+](=O)[O-])cccc2c1=O the Activity (Saccharomyces cerevisiae [2]) was “inactive”, the Activity (Saccharomyces cerevisiae [3]) was “Active” and the Activity (Saccharomyces cerevisiae [4]) was “inactive”. For the same compound, the Activity (Saccharomyces cerevisiae [5]) was “Active”.
With O=C(O)c1cnc2c([N+](=O)[O-])cccc2c1O the Activity (Homo sapiens) was “Active”, the IC50 (MCF-10A) was 24.4 µM and the Activity (Saccharomyces cerevisiae [2]) was “inactive”. The Activity (U2OS [6]) was “inactive”, the Activity (Mus musculus) was “Active” and the inhibition [7] was “inactive”. For the same compound, the Activity (HCT-116 [8]) was “Active”, the IC50 (WiDr) was 52.6 µM and the IC50 (NCI-H2030) was 17.7 µM. For the same compound, the IC50 (MCF7 [9]) was 7.2 µM, the IC50 (CWR22R) was 11.8 µM and the IC50 (PC-3) was 20.9 µM. The Activity (HCT-116 [10]) was 54.1%, the Activity (HCT-116 [11]) was “Active” and the Activity (HCT-116 [12]) was 13%. The IC50 (NCI-H460) was 43.7 µM, the IC50 (DLD-1) was 25.1 µM and the IC50 (MDA-MB-231) was 46.8 µM. For the same compound, the Activity (HCT-116 [13]) was 66.9%, the Activity (Saccharomyces cerevisiae [3]) was “Active” and the Activity (MCF7 [14]) was “Active”. For the same compound, the IC50 (RWPE-1) was 78.8 µM, the Activity (HCT-116 [15]) was 12.6% and the IC50 (FHC) was 75.2 µM. For the same compound, the inhibition [16] was “inactive”, the Activity (Saccharomyces cerevisiae [4]) was “inactive” and the IC50 (A549) was 23.6 µM. The IC50 [17] was 15.7 µM, the Activity (HCT-116 [18]) was 17.2% and the IC50 (HT-29) was 40.5 µM. The IC50 (IMR-90) was 95.5 µM, the IC50 (HCT-8) was 27.5 µM and the Activity (Saccharomyces cerevisiae [5]) was “Active”. The Activity (HCT-116 [19]) was 28.1%, the Activity (HCT-116 [20]) was “Active” and the IC50 (LNCaP C4-2) was 19.7 µM. It also gave an IC50 (HCT-116 [21]) of 24.2 µM.
